Experimental data taken from patent publication US9555045B2, “Use of prostaglandins F2alpha and analogues for the healing of corneal and conjunctival lesions” (SANTEN SAS, priority 2009, dated 2017).

System: Sprague-Dawley rats
Settings: rat
Procedure: Brief description of the protocol: 16 male Sprague-Dawley rats weighting 100 to 125 g were randomly assigned to 4 groups (4 rats per group (Gp)): Gp1, Phosphate buffer solution (PBS); Gp2, 0.02% benzalkonium chloride (BAK); Gp3, Xalatan®; Gp4, Latanoprost Emulsion. Following general and local anesthesia with ketamine/xylazine and topical Oxybucaïne, respectively, the upper part of the right eye cornea of each rat was scraped with a surgical scalpel following an application of 50 μl of 50% ethanol solution. The upper corneal and limbal epithelia were removed (at day D0). One drop of Tobrex was instilled immediately after the scraping. 2 and 5 hours post scraping one drop of the different test articles were applied onto the cornea of the right eye. These latter instillations were repeated every day for 4 days, and corneal evaluation with an in vivo confocal microscope (IVCM-HRT) was performed on day 4 after the last instillation. At the end of the experimental procedure (the total duration of the treatment is 5 days; from day D0 to D4), the animals were sacrificed and the eyes harvested to characterize the histological organisation of the treated cornea.

benzalkonium chloride [0.02% BAK solution]
IVCM (in vivo confocal microscopy) of superficial epithelium: scar tissue / hypereflectivity: corneal edema and tissue disorganisation | Hematoxylin-eosin staining of treated cornea (epithelium thinning, edema, inflammatory infiltrates) (in vivo): edemas and inflammatory infiltrates are particularly obvious
